# Measurements from US20080200442A1, “Compositions and Methods for Treating, Reducing, Ameliorating, or Preventing Infections of the Ear or Upper Respiratory Tract” (priority 2007, published 2008).
# Legend:
# Assay type in all cases: cell-based
# [1] = test system: Veillonella parvula (GAI 5602); experiment: In vitro anti-bacterial activity (MIC90), anaerobic reference bacteria
# [2] = test system: Peptostreptococcus micros (GIFU 7824); experiment: as above; details: Parvimonas micra
# [3] = test system: Bacteroides vulgatus (GAI 0673); experiment: as above; details: Phocaeicola vulgatus
# [4] = test system: Gentamycin-resistant Staphylococcus aureus; experiment: In vitro anti-bacterial activity (MIC90), ophthalmologic clinical bacteria isolates
# [5] = test system: Coagulase-negative Staphylococcus; experiment: as above; details: Gram-positive
# [6] = test system: Staphylococcus aureus (No. 420); experiment: In vitro anti-bacterial activity (MIC90), methicillin-resistant Staphylococcus aureus isolates; details: methicillin-resistant Staphylococcus aureus (No. 420)
# Experimental: (§1) Anti-bacterial activity of the compound having Formula III was tested against several Gram-negative reference bacteria strains and compared to the anti-bacterial activity of three commercially available antibiotics (nadifloxacin, ofloxacin, and sparfloxacin). The results are shown in Table 2 as MIC90 values (minimum concentration of the active compound required to inhibit ninety percent of the growth of a specified pathogen, in μg/ml).
# (§2) Anti-bacterial activity of the compound having Formula III was tested against some methicillin-resistant Staphylococcus aureus bacteria strains and compared to the anti-bacterial activity of three commercially available antibiotics (nadifloxacin, ofloxacin, and sparfloxacin).
# [7] = test system: Staphylococcus aureus (No. 419); experiment: as above; details: methicillin-resistant Staphylococcus aureus (No. 419)
# Experimental: as §1, §2
# [8] = test system: Staphylococcus aureus (ATCC 33592); experiment: as above; details: ATCC33592; methicillin-resistant Staphylococcus aureus (ATCC 33592)
# Experimental: as §1, §2
# [9] = test system: Staphylococcus aureus (ATCC 33593); experiment: as above; details: ATCC33593; methicillin-resistant Staphylococcus aureus (ATCC 33593)
# Experimental: as §1, §2
# [10] = test system: Staphylococcus aureus (No. 395); experiment: as above; details: methicillin-resistant Staphylococcus aureus (No. 395)
# Experimental: as §1, §2
# [11] = test system: Staphylococcus aureus (No. 421); experiment: as above; details: methicillin-resistant Staphylococcus aureus (No. 421)
# Experimental: as §1, §2
# [12] = test system: Staphylococcus aureus (No. 415); experiment: as above; details: methicillin-resistant Staphylococcus aureus (No. 415)
# Experimental: as §1, §2
# [13] = test system: Staphylococcus aureus (ATCC 33591); experiment: as above; details: ATCC33591; methicillin-resistant Staphylococcus aureus (ATCC 33591)
# Experimental: as §1, §2
# [14] = test system: Gentamycin-resistant Pseudomonas aeruginosa; experiment: In vitro anti-bacterial activity (MIC90), ophthalmologic clinical bacteria isolates
# [15] = test system: Streptococcus pneumoniae (IID 553); experiment: In vitro anti-bacterial activity (MIC90), Gram-positive reference strains; details: IID553
# Experimental: as §1, with “μg/ml). Anti-bacterial activity of the compound having Formula III was tested against several Gram-positive reference bacteria strains and compared to the anti-bacterial activity of three commercially available antibiotics (nadifloxacin, ofloxacin, and sparfloxacin).” for “μg/ml).”
# [16] = test system: Streptococcus pyogenes (IID 698); experiment: as above; details: IID698
# Experimental: as §1, with “μg/ml). Anti-bacterial activity of the compound having Formula III was tested against several Gram-positive reference bacteria strains and compared to the anti-bacterial activity of three commercially available antibiotics (nadifloxacin, ofloxacin, and sparfloxacin).” for “μg/ml).”
# [17] = test system: Sarcina lutea (ATCC 9341); experiment: as above; details: Micrococcus luteus, ATCC9341
# Experimental: as §1, with “μg/ml). Anti-bacterial activity of the compound having Formula III was tested against several Gram-positive reference bacteria strains and compared to the anti-bacterial activity of three commercially available antibiotics (nadifloxacin, ofloxacin, and sparfloxacin).” for “μg/ml).”
# [18] = test system: Streptococcus faecalis (ATCC 29212); experiment: as above; details: Enterococcus faecalis, ATCC29212
# Experimental: as §1, with “μg/ml). Anti-bacterial activity of the compound having Formula III was tested against several Gram-positive reference bacteria strains and compared to the anti-bacterial activity of three commercially available antibiotics (nadifloxacin, ofloxacin, and sparfloxacin).” for “μg/ml).”
# [19] = test system: Streptococcus pneniae (IID 554); experiment: as above; details: IID554
# Experimental: as §1, with “μg/ml). Anti-bacterial activity of the compound having Formula III was tested against several Gram-positive reference bacteria strains and compared to the anti-bacterial activity of three commercially available antibiotics (nadifloxacin, ofloxacin, and sparfloxacin).” for “μg/ml).”
# [20] = test system: Streptococcus faecalis (IFO 12964); experiment: as above; details: Enterococcus faecalis, IFO12964
# Experimental: as §1, with “μg/ml). Anti-bacterial activity of the compound having Formula III was tested against several Gram-positive reference bacteria strains and compared to the anti-bacterial activity of three commercially available antibiotics (nadifloxacin, ofloxacin, and sparfloxacin).” for “μg/ml).”
# [21] = test system: Staphylococcus aureus (ATCC 25933); experiment: as above; details: ATCC25933
# Experimental: as §1, with “μg/ml). Anti-bacterial activity of the compound having Formula III was tested against several Gram-positive reference bacteria strains and compared to the anti-bacterial activity of three commercially available antibiotics (nadifloxacin, ofloxacin, and sparfloxacin).” for “μg/ml).”
# [22] = test system: Staphylococcus epidermidis (ATCC 12228); experiment: as above; details: ATCC12228
# Experimental: as §1, with “μg/ml). Anti-bacterial activity of the compound having Formula III was tested against several Gram-positive reference bacteria strains and compared to the anti-bacterial activity of three commercially available antibiotics (nadifloxacin, ofloxacin, and sparfloxacin).” for “μg/ml).”
# [23] = test system: Bacillis subtilis (ATCC 6633); experiment: as above
# Experimental: as §1, with “μg/ml). Anti-bacterial activity of the compound having Formula III was tested against several Gram-positive reference bacteria strains and compared to the anti-bacterial activity of three commercially available antibiotics (nadifloxacin, ofloxacin, and sparfloxacin).” for “μg/ml).”
# [24] = test system: Staphylococcus aureus (Smith); experiment: as above
# Experimental: as §1, with “μg/ml). Anti-bacterial activity of the compound having Formula III was tested against several Gram-positive reference bacteria strains and compared to the anti-bacterial activity of three commercially available antibiotics (nadifloxacin, ofloxacin, and sparfloxacin).” for “μg/ml).”
# [25] = test system: Staphylococcus aureus (FDA 209P); experiment: as above; details: FDA209P
# Experimental: as §1, with “μg/ml). Anti-bacterial activity of the compound having Formula III was tested against several Gram-positive reference bacteria strains and compared to the anti-bacterial activity of three commercially available antibiotics (nadifloxacin, ofloxacin, and sparfloxacin).” for “μg/ml).”
# [26] = test system: Streptococcus pyogenes (Cook); experiment: as above
# Experimental: as §1, with “μg/ml). Anti-bacterial activity of the compound having Formula III was tested against several Gram-positive reference bacteria strains and compared to the anti-bacterial activity of three commercially available antibiotics (nadifloxacin, ofloxacin, and sparfloxacin).” for “μg/ml).”
# Corynebacterium species = experiment: In vitro anti-bacterial activity (MIC90), ophthalmologic clinical bacteria isolates; details: Gram-positive
# Moraxella species = experiment: as above; details: Gram-negative
# [27] = test system: Penicillin-resistant Streptococcus pneumoniae; experiment: as above
# Propionibacterium acnes = experiment: as above; details: Cutibacterium acnes, Gram-positive
# [28] = test system: Ofloxacin-resistant Staphylococcus aureus; experiment: as above
# Pseudomonas aeruginosa = experiment: as above; details: Gram-negative
# Haemophilus influenzae = experiment: as above; details: Gram-negative
# [29] = test system: Clostridium perfringens (KZ 210); experiment: microbe, parasite or virus in culture
# Staphylococcus aureus = experiment: In vitro anti-bacterial activity (MIC90), ophthalmologic clinical bacteria isolates; details: Gram-positive
# [30] = test system: Peptostreptococcus magnum (GAI 0664); experiment: In vitro anti-bacterial activity (MIC90), anaerobic reference bacteria
# Streptococcus pneumoniae = experiment: In vitro anti-bacterial activity (MIC90), ophthalmologic clinical bacteria isolates; details: Gram-positive
# [31] = test system: Propionibacterium acnes (ATCC 6919); experiment: In vitro anti-bacterial activity (MIC90), anaerobic reference bacteria; details: Cutibacterium acnes, ATCC6919
# [32] = test system: Bacteroides thetaiotaomicron (GAI 0659); experiment: as above; details: anaerobic; Bacteroides thetaiotaomicron (GAI 0659); read-out: MIC90
# [33] = test system: Propionibacterium acnes (GAI 5419); experiment: as above; details: Cutibacterium acnes
# [34] = test system: Bacteroides fragillis (GAI 0675); experiment: as above
# [35] = test system: Propionibacterium acnes (ATCC 11828); experiment: as above; details: Cutibacterium acnes, ATCC11828
# [36] = test system: Salmonella typhimurium (TD); experiment: In vitro anti-bacterial activity (MIC90), Gram-negative reference strains
# Experimental: Anti-bacterial activity of the compound having Formula III was tested against several Gram-negative reference bacteria strains and compared to the anti-bacterial activity of three commercially available antibiotics (nadifloxacin, ofloxacin, and sparfloxacin).
structure (smiles),measurement,setting,value
NC1CCCCN(c2c(F)cc3c(=O)c(C(=O)O)cn(C4CC4)c3c2Cl)C1 (stereo not shown) [Compound Having Formula III],MIC90,[1],0.1 µg/mL
same,MIC90,[2],0.2 µg/mL
same,MIC90,[3],0.1 µg/mL
same,MIC90,[4],4 µg/mL
same,MIC90,[5],0.5 µg/mL
same,MIC90,[6],0.1 µg/mL
same,MIC90,[7],0.1 µg/mL
same,MIC90,[8],0.05 µg/mL
same,MIC90,[9],0.012 µg/mL
same,MIC90,[10],0.006 µg/mL
same,MIC90,[11],0.2 µg/mL
same,MIC90,[12],0.05 µg/mL
same,MIC90,[13],0.012 µg/mL
same,MIC90,[14],32 µg/mL
same,MIC90,[15],0.1 µg/mL
same,MIC90,[16],0.1 µg/mL
same,MIC90,[17],0.1 µg/mL
same,MIC90,[18],0.2 µg/mL
same,MIC90,[19],0.2 µg/mL
same,MIC90,[20],0.1 µg/mL
same,MIC90,[21],0.05 µg/mL
same,MIC90,[22],0.05 µg/mL
same,MIC90,[23],0.012 µg/mL
same,MIC90,[24],0.006 µg/mL
same,MIC90,[25],0.012 µg/mL
same,MIC90,[26],0.1 µg/mL
same,MIC90,Corynebacterium species,2 µg/mL
same,MIC90,Moraxella species,0.13 µg/mL
same,MIC90,[27],0.13 µg/mL
same,MIC90,Propionibacterium acnes,0.25 µg/mL
same,MIC90,[28],8 µg/mL
same,MIC90,Pseudomonas aeruginosa,4 µg/mL
same,MIC90,Haemophilus influenzae,≤ 0.06 µg/mL
same,MIC90,[29],0.2 µg/mL
same,MIC90,Staphylococcus aureus,1 µg/mL
same,MIC90,[30],0.05 µg/mL
same,MIC90,Streptococcus pneumoniae,0.13 µg/mL
same,MIC90,[31],0.2 µg/mL
same,MIC90,[32],0.2 µg/mL
same,MIC90,[33],0.2 µg/mL
same,MIC90,[34],0.1 µg/mL
same,MIC90,[35],0.39 µg/mL
same,MIC90,[36],0.05 mμg/mL
CCn1cc(C(=O)O)c(=O)c2cc(F)c(N3CCNCC3)cc21 [Norfloxacin],MIC90,[4],128 µg/mL
same,MIC90,[5],128 µg/mL
same,MIC90,[14],128 µg/mL
same,MIC90,Corynebacterium species,16 µg/mL
same,MIC90,Moraxella species,0.25 µg/mL
same,MIC90,[27],8 µg/mL
same,MIC90,Propionibacterium acnes,4 µg/mL
same,MIC90,[28],> 128 µg/mL
same,MIC90,Pseudomonas aeruginosa,4 µg/mL
same,MIC90,Haemophilus influenzae,≤ 0.06 µg/mL
same,MIC90,Staphylococcus aureus,> 128 µg/mL
same,MIC90,Streptococcus pneumoniae,8 µg/mL
